Several values for one entry are separate records, joined by “and”; a condition that tells them apart may be missing. Identical values can stand only once.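 The compound was tested at five concentrations on cells cultured in 96-well plates, with a 48-hour exposure period. GI50 = concentration required for 50% inhibition of growth. At the TGI there is no net growth.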
Columns and labels:
Test in all cases: NCI-60 cell line screen, 48 h
[1] = system: HOP-92 NSCLC
[2] = system: SK-MEL-5 melanoma
[3] = system: OVCAR-5 ovarian
[4] = system: SF-268 CNS
[5] = system: K-562 leukemia
[6] = system: SNB-19 CNS
[7] = system: RXF 393 renal
[8] = system: HS 578T breast
[9] = system: SF-539 CNS
[10] = system: COLO 205 colon

Compound	GI50 [1]	TGI [1]	GI50 [2]	TGI [2]	GI50 [3]	TGI [3]	GI50 [4]	TGI [4]	GI50 [5]	TGI [5]	GI50 [6]	TGI [6]	GI50 [7]	TGI [7]	GI50 [8]	TGI [8]	GI50 [9]	TGI [9]	GI50 [10]	TGI [10]
CCc1nc(C)cn1C(=O)OCc1nc2nc(Cl)nc(N3CCOCC3)c2[nH]1	0.88 µM	2.41 µM	1.64 µM	3.01 µM	1.44 µM	2.99 µM	1.53 µM	3.06 µM	0.703 µM	> 100 µM	1.43 µM	2.84 µM	0.658 µM	2.01 µM	1.74 µM	4.89 µM	1.27 µM	2.54 µM	1.37 µM	2.94 µM
O=S1(=O)c2ccccc2N(c2ccccc2)c2nnnn21	–	88.7 µM	–	> 100 µM	–	> 100 µM	–	> 100 µM	–	> 100 µM	–	88.5 µM	–	49.5 µM	–	> 100 µM	–	35.7 µM	–	48.5 µM
Oc1ccc2c(=S)cc(-c3ccc(Br)cc3)oc2c1O	1.69 µM	6.11 µM	1.79 µM	3.95 µM	5.83 µM	78 µM	2.18 µM	> 100 µM	2.47 µM	> 100 µM	2.95 µM	> 100 µM	2.51 µM	8.78 µM	6.69 µM	> 100 µM	1.98 µM	7.28 µM	10.7 µM	24.5 µM
CNC(=O)ON(C(C)=O)C(=O)NC	> 56 µM	64.4 µM	–	107 µM	–	276 µM	–	323 µM	51.8 µM and 26.6 µM	241 µM	–	359 µM	–	107 µM	49.9 µM	216 µM	–	145 µM	> 70 µM and 47.5 µM	142 µM
CC1(C)C(N2CCOCC2)CS1(=O)=O (centres undefined)	–	> 10 µM	–	> 10 µM	–	> 10 µM	–	> 10 µM	–	> 10 µM	–	> 10 µM	–	> 10 µM	–	> 10 µM	–	> 10 µM	–	> 10 µM
COC(=O)[C@]12CC[C@@H](C)[C@H](C)[C@@H]1C1=CC[C@@H]3[C@@]4(C)C(C=O)=C[C@@](C)(CO)[C@@H]4[C@H](O)C[C@@]3(C)[C@]1(C)CC2	6.18 µM	20.9 µM	5.8 µM	18.4 µM	3.47 µM	17.9 µM	5.16 µM	20.4 µM	3.86 µM	15.5 µM	7.69 µM	21.7 µM	2.64 µM	8.75 µM	4.82 µM	26.4 µM	10.1 µM	22.8 µM	2.17 µM	4.93 µM
C#C[C@@]1(O)[C@@H](CO)O[C@@H](n2cc(Br)c3c(Cl)ccnc32)[C@@H]1O	0.115 µM	0.916 µM	39.7 µM	> 100 µM	1.96 µM	> 100 µM	10.5 µM	> 100 µM	0.542 µM	> 100 µM	1.54 µM	> 100 µM	0.283 µM	1.23 µM	1.01 µM	> 100 µM	0.357 µM	11.1 µM	0.881 µM	> 100 µM
CCN(CC)CCNC(=O)c1cccc2c1-c1ccccc1C2=O	> 100 µM	> 100 µM	> 100 µM	> 100 µM	> 100 µM	> 100 µM	> 100 µM	> 100 µM	> 100 µM	> 100 µM	> 100 µM	> 100 µM	> 100 µM	> 100 µM	> 100 µM	> 100 µM	95.1 µM	> 100 µM	> 100 µM	> 100 µM
CC(C)(C)[Si](C)(C)OCC1OC(n2cnc3c(=O)[nH]cnc32)CC1O (centres undefined)	–	> 100 µM	–	> 100 µM	–	> 100 µM	–	> 100 µM	–	> 100 µM	–	> 100 µM	–	> 100 µM	–	> 100 µM	–	> 100 µM	–	> 100 µM
CN1CCN(CCCNC(=O)c2c3c(n4ccccc24)C(=O)c2ncccc2C3=O)CC1	3.03 µM	13.4 µM	0.547 µM	1.54 µM	2.42 µM	> 53.2 µM	1.28 µM	24.4 µM	1.39 µM	> 32.4 µM	1.35 µM	6.09 µM	1.52 µM	10.4 µM	5.32 µM	51.8 µM	1.99 µM	6.56 µM	0.563 µM	1.67 µM
COC(=O)C1C(C(=O)O)C2(c3ccccc3)C(=O)C1(c1ccccc1)C(c1ccccc1)=C2c1ccccc1 (centres undefined)	10.6 µM	30.9 µM	12.9 µM	27.6 µM	19.3 µM	35.3 µM	20 µM	53.1 µM	21.8 µM	> 100 µM	11.7 µM	29.5 µM	16.8 µM	36.3 µM	23.4 µM	58 µM	19.5 µM	36.3 µM	18.8 µM	39.3 µM
O=C(/C=C/c1ccccc1)c1cccc2ccccc12	2.05 µM	6.8 µM	2.98 µM	11.7 µM	3.78 µM	17.4 µM	1.99 µM	5.13 µM	1.61 µM	5.26 µM	4.1 µM	15.3 µM	2.38 µM	8.04 µM	5.43 µM	> 100 µM	3.5 µM	11 µM	5.51 µM	18.2 µM
Cc1ccc(N)cc1[As]=[As]c1cc(N)ccc1C (centres undefined)	0.997 µM	2.4 µM	1.51 µM	2.91 µM	2.07 µM	3.73 µM	1.56 µM	3.02 µM	0.341 µM	> 100 µM	1.68 µM	3.24 µM	1.19 µM	2.47 µM	2.81 µM	> 100 µM	1.39 µM	2.76 µM	1.33 µM	2.77 µM
Cc1ccc(/C=N/NC(=O)c2ccccc2Oc2ccccc2)o1	12.5 µM	> 95.4 µM	16.4 µM	33.3 µM	> 93 µM	> 100 µM	42.9 µM	> 100 µM	33.8 µM	> 100 µM	48.4 µM	> 100 µM	35.6 µM	> 100 µM	46.9 µM	> 100 µM	> 83.6 µM	> 100 µM	61.3 µM	> 100 µM
